≈ marks a conversion by molar mass, not a printed value.

Two compounds from ChEMBL document CHEMBL1124752, “Cyclobut-A and cyclobut-G: broad-spectrum antiviral agents with potential utility for the therapy of AIDS” (J Med Chem, 1990) can be followed below.

The subject of assay [1] is Human alphaherpesvirus 2. In words: In vitro antiviral activity against herpesvirus, HSV-2, JEN strain by plaque reduction assay in human foreskin fibroblasts. Type of assay: functional. As to conditions: read-out: ED50 (the source's name). (Plaques are areas of infected cells; plaque reduction assays count them against a control.)
The test system of assay [2] is Human alphaherpesvirus 3. In words: In vitro antiviral activity tested against herpesvirus, VZV, Ellen strain by plaque reduction assay in human foreskin fibroblasts. As to conditions: Human alphaherpesvirus 3, read-out: ED50.
The subject of assay [3] is Human alphaherpesvirus 2. Description: In vitro antiviral activity against herpesvirus,HSV-2,X-79 strain by plaque reduction assay in human foreskin fibroblasts. In kind it is functional. As to conditions: read-out: ED50 (the source's name).
For a further assay, the species on record is Homo sapiens. Description: The drug concentration was determined to reduce proliferation of human foreskin fibroblasts to 50% of untreated controls in proliferation assay. Type of assay: functional. To be noted: read-out: ID50 (the source's name).
For assay [4], the system named is Human alphaherpesvirus 1. In words: Tested for mean day to death of nonsurvivors against HSV-1 infection in mice at 50 mg/kg per day. Type of assay: functional.
A short description of assay [5]: In vitro antiviral activity against herpesvirus, HSV-HEET strain by plaque reduction assay in human foreskin fibroblasts. In kind it is functional, herpes simplex virus. To be noted: Human alphaherpesvirus 1; read-out: ID50 (the source's name).
In assay [6] the test system is Human alphaherpesvirus 1. In words: Number of survivors per number of HSV-1 infected mice treated with 50 mg/kg per day; 0/10. Type of assay: functional.
Assay [7] concerns Human alphaherpesvirus 1. In words: Tested for mean day to death of nonsurvivors against HSV-1 infection in mice at 12.5 mg/kg per day. In kind it is functional.
Assay [8] concerns Human alphaherpesvirus 1. In words: In vitro antiviral activity against herpesvirus, HSV-1, E-377 strain by plaque reduction assay in human foreskin fibroblasts. Type of assay: functional. As to conditions: read-out: ID50 (the source's name).
Assay [9] relates to Human alphaherpesvirus 2. Description: In vitro antiviral activity against herpesvirus, HSV-2, X-79 strain by plaque reduction assay in human foreskin fibroblasts. In kind it is functional. To be noted: read-out: ID50 (the source's name).
The next assay concerns Raji. Description: Tested for the inhibition of diffuse early antigen production assayed by immunofluorescent monoclonal antibody. As to conditions: Homo sapiens. In kind it is functional.
Assay [10] has as its system Human alphaherpesvirus 2. Description: In vitro antiviral activity against herpesvirus, HSV-2, MS strain by plaque reduction assay in human foreskin fibroblasts. Type of assay: functional. As to conditions: read-out: ED50 (the source's name).
Assay [11] has as its system Human alphaherpesvirus 2. Description: In vitro antiviral activity against herpesvirus, HSV-2, MS strain by plaque reduction assay in human foreskin fibroblasts. In kind it is functional. As to conditions: read-out: ID50 (the source's name).
Assay [12] deals with Human alphaherpesvirus 1. Description: Number of survivors per number of HSV-1 infected mice treated with 12.5 mg/kg per day; 2/10. In kind it is functional.
Assay [13] relates to Human alphaherpesvirus 3. Description: In vitro antiviral activity tested against herpesvirus, VZV, OKA strain by plaque reduction assay in human foreskin fibroblasts. To be noted: Human alphaherpesvirus 3, read-out: ED50.
Assay [14] concerns Human alphaherpesvirus 1. Description: Tested for mean day to death of nonsurvivors against HSV-1 infection in mice at 200 mg/kg per day. In kind it is functional.
For assay [15], the system named is Human alphaherpesvirus 3. In words: In vitro antiviral activity against herpesvirus, VZV, Ellen strain by plaque reduction assay in human foreskin fibroblasts. To be noted: Human alphaherpesvirus 3, read-out: ID50.
Assay [16] relates to Human alphaherpesvirus 3. Description: In vitro antiviral activity against herpesvirus, VZV, OKA strain by plaque reduction assay in human foreskin fibroblasts. To be noted: Human alphaherpesvirus 3, read-out: ID50.
Assay [17] in a line: In vitro antiviral activity against herpesvirus, HSV-JEN strain by plaque reduction assay in human foreskin fibroblasts. As to conditions: Human alphaherpesvirus 1; read-out: ID50 (the source's name). In kind it is functional, herpes simplex virus.
In assay [18] the test system is Human alphaherpesvirus 1. In words: In vitro antiviral activity against herpesvirus, HSV-1,E-377 strain by plaque reduction assay in human foreskin fibroblasts. Type of assay: functional. As to conditions: read-out: ED50 (the source's name).
Assay [19] relates to Human alphaherpesvirus 2. In words: In vitro antiviral activity against herpesvirus,HSV-2,HEET strain by plaque reduction assay in human foreskin fibroblasts. In kind it is functional. As to conditions: read-out: ED50 (the source's name).
Assay [20] deals with Human alphaherpesvirus 1. In words: Number of survivors per number of HSV-1 infected mice treated with 200 mg/kg per day; 4/10. Type of assay: functional.
Assay [21] relates to Human immunodeficiency virus 1. Description: Tested for the determination of percentage protection at 100 uM concentrations against HIV-1 in ATH8 Cells. Type of assay: functional.
Assay [22] relates to Human immunodeficiency virus 1. Description: Tested for the determination of percentage protection at 20 uM concentrations against HIV-1 in ATH8 Cells. Type of assay: functional.
Assay [23] relates to Human immunodeficiency virus 1. Description: Tested for the determination of percentage toxicity at 5 uM concentrations against HIV-1 in ATH8 Cells. In kind it is functional.
Assay [24] concerns Human immunodeficiency virus 1. In words: Tested for the determination of percentage protection at 1 uM concentrations against HIV-1 in ATH8 Cells. In kind it is functional.
Assay [25] concerns Human immunodeficiency virus 1. Description: Tested for the determination of percentage toxicity at 100 uM concentrations against HIV-1 in ATH8 Cells. In kind it is functional.
Assay [26] has as its system Human immunodeficiency virus 1. In words: Tested for the determination of percentage toxicity at 20 uM concentrations against HIV-1 in ATH8 Cells. Type of assay: functional.
Assay [27] has as its system Human immunodeficiency virus 1. In words: Tested for the determination of percentage protection at 5 uM concentrations against HIV-1 in ATH8 Cells. Type of assay: functional.
The subject of assay [28] is Human immunodeficiency virus 1. In words: Tested for the determination of percentage toxicity at 1 uM concentrations against HIV-1 in ATH8 Cells. Type of assay: functional.

As for `Nc1nc2c(ncn2COCCO)c(=O)[nH]1` [ACYCLOVIR], the EC50 in the assay on Human alphaherpesvirus 2 [1] amounted to 0.07 mg/L (≈ 0.311 µM); in the assay on Human alphaherpesvirus 3 [2], 2.3 mg/L (≈ 10.2 µM); with Human alphaherpesvirus 2 [3], 0.1 mg/L (≈ 0.444 µM); in the assay on Raji (read-out: ED50 (the source's name)) it was 3.8 mg/L (≈ 16.9 µM); with Human alphaherpesvirus 2 [10] it was 0.09 mg/L (≈ 0.4 µM); with Human alphaherpesvirus 3 [13] it was 3.7 mg/L (≈ 16.4 µM). In addition, the results for the EC50 in the assay on Human alphaherpesvirus 1 [18] and with Human alphaherpesvirus 2 [19] were 0.08 mg/L (≈ 0.355 µM) and 0.06 mg/L (≈ 0.266 µM), respectively. Also, the IC50 in the assay listed under Homo sapiens was 165 mg/L (≈ 733 µM); in assay [5], greater than 100 mg/L; with Human alphaherpesvirus 1 [8], greater than 100 mg/L; in the assay on Human alphaherpesvirus 2 [9], greater than 100 mg/L; in the assay on Raji (read-out: ID50 (the source's name)) it was greater than 100 mg/L; in the assay on Human alphaherpesvirus 2 [11] it was greater than 100 mg/L. Also, the IC50 (in the assay with Human alphaherpesvirus 3 [15]; in the assay with Human alphaherpesvirus 3 [16]; in [17]) was greater than 100 mg/L in each case. The MDD turned out to be 8 in the assay on Human alphaherpesvirus 1 [4], 7.8 with Human alphaherpesvirus 1 [7] and 12.3 in the assay with Human alphaherpesvirus 1 [14]. Moreover, the Survivors / treated stood at 0 in the assay with Human alphaherpesvirus 1 [6], 2 in the assay on Human alphaherpesvirus 1 [12] and 4 in the assay on Human alphaherpesvirus 1 [20].
As for `Cc1cn([C@H]2C[C@H](N=[N+]=[N-])[C@@H](CO)O2)c(=O)[nH]c1=O` [ZIDOVUDINE], the Protection in [21] is reported as 47%; in assay [22] it was 65%; in [24], 65%; in [27], 96%. Also, the Cytotoxicity in assay [23] is given as 30%; in [25], 54%; in [26], 54%; in assay [28], 3%.
